This experiment has as its system P388 leukemia ip, CD2F1 mice, survival T/C. Briefly: NCI In Vivo Anticancer Drug Screen. Data for tumor model P388 Leukemia (intraperitoneal) in CD2F1 (CDF1) mice. To be noted: endpoint: median survival time, higher = longer survival. An outline of the steps: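 Mice carrying the transplanted tumor received test compound or vehicle. Survival was recorded in each group, and the value is the treated-group measurement divided by that of the vehicle-treated control group.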

Setting [1] is: dose: 100.0 mg/kg/injection, schedule: Q04DX003 (ip), vehicle: saline.
Where [2] appears, read: dose: 50.0 mg/kg/injection, schedule: Q01DX005 (ip), vehicle: Klucel (hydroxypropylcellulose) (HPC).
The mark [3] stands for this setting: dose: 100.0 mg/kg/injection, schedule: Q01DX005 (ip), vehicle: Klucel (hydroxypropylcellulose) (HPC).
Setting [4] is: dose: 200.0 mg/kg/injection, schedule: Q01DX005 (ip), vehicle: Klucel (hydroxypropylcellulose) (HPC).
Setting [5] is: dose: 50.0 mg/kg/injection, schedule: Q01DX009 (ip), vehicle: saline.
Where [6] appears, read: dose: 100.0 mg/kg/injection, schedule: Q01DX009 (ip), vehicle: saline.
[7] abbreviates: dose: 200.0 mg/kg/injection, schedule: Q01DX009 (ip), vehicle: saline.
Where [8] appears, read: dose: 400.0 mg/kg/injection, schedule: Q01DX009 (ip), vehicle: saline.
Where [9] appears, read: dose: 12.5 mg/kg/injection, schedule: Q01DX009 (ip), vehicle: saline.
The mark [10] stands for this setting: dose: 25.0 mg/kg/injection, schedule: Q01DX009 (ip), vehicle: saline.
Setting [11] is: dose: 60.0 mg/kg/injection, schedule: Q01DX005 (ip), vehicle: saline with Tween-80.
Setting [12] is: dose: 120.0 mg/kg/injection, schedule: Q01DX005 (ip), vehicle: saline with Tween-80.
The mark [13] stands for this setting: dose: 240.0 mg/kg/injection, schedule: Q01DX005 (ip), vehicle: saline with Tween-80.

Values joined by “and” are separate entries in the source; they are usually repeats but may differ in a detail not shown here. Equal values may be shown once. Toxic doses and inconclusive results are not listed. Peptide text beside a SMILES is read from it.

`CCOC(=N)c1cn(C2OC(CO)C(O)C2O)c2ncnc(N)c12` (stereo not given): the T/C runs as follows: (dose: 0.2 mg/kg/injection, schedule: Q01DX009 (ip), vehicle: saline) 161 % of control; (dose: 0.25 mg/kg/injection, schedule: Q01DX009 (ip), vehicle: saline) 150 % of control; (dose: 0.3 mg/kg/injection, schedule: Q01DX009 (ip), vehicle: saline) 157 % of control; (dose: 0.5 mg/kg/injection, schedule: Q01DX009 (ip), vehicle: saline) 159 % of control; (dose: 1.0 mg/kg/injection, schedule: Q01DX009 (ip), vehicle: saline) 118 % of control; (dose: 2.0 mg/kg/injection, schedule: Q01DX009 (ip), vehicle: saline) 90 % of control.

For the molecule `COc1cc(Br)cc(/C=C(\C)[N+](=O)[O-])c1O`, the T/C runs as follows: (dose: 12.5 mg/kg/injection, schedule: Q04DX003 (ip), vehicle: saline) 101 % of control; (dose: 25.0 mg/kg/injection, schedule: Q04DX003 (ip), vehicle: saline) 99 % of control and 108 % of control; (dose: 50.0 mg/kg/injection, schedule: Q04DX003 (ip), vehicle: saline) 104 % of control and 110 % of control; under setting [1], 104 % of control.

Regarding `N#CCCN(CCC#N)Cc1c(O)ccc2ccccc12`, the T/C (dose: 50.0 mg/kg/injection, schedule: Q01DX005 (ip), vehicle: saline with Tween-80) was 104 % of control; the T/C (dose: 100.0 mg/kg/injection, schedule: Q01DX005 (ip), vehicle: saline with Tween-80) is 114 % of control; the T/C (dose: 200.0 mg/kg/injection, schedule: Q01DX005 (ip), vehicle: saline with Tween-80) was 117 % of control.

Take `N#CC(C(O)c1ccccc1)N1CCOCC1` (stereo not given): the T/C is 102 % of control (dose: 50.0 mg/kg/injection, schedule: Q01DX009 (ip), vehicle: suspension in saline); 109 % of control (dose: 100.0 mg/kg/injection, schedule: Q01DX009 (ip), vehicle: suspension in saline); 94 % of control (dose: 200.0 mg/kg/injection, schedule: Q01DX009 (ip), vehicle: suspension in saline).

Turning to `COc1ccccc1-n1c(Cc2cccc3ccccc23)n[nH]c1=S`, the T/C is 99 % of control under setting [2], 100 % of control under setting [3] and 99 % of control under setting [4].

Turning to `CCOC(=O)CNC1=NCCO1`, the T/C reads like this: under setting [5], 109 % of control; under setting [6], 107 % of control; under setting [7], 102 % of control; under setting [8], 106 % of control.

Turning to `CC(=O)Nc1nc(C)c(S(=O)(=O)Cl)s1`, the T/C is 102 % of control under setting [5], 98 % of control under setting [6], 102 % of control under setting [7] and 94 % of control under setting [8].

With `CN1CCN(CCSSCCN2CCN(C)CC2)CC1`, the T/C runs as follows: under setting [5], 109 % of control; under setting [6], 104 % of control; under setting [7], 109 % of control.

With `COc1ccc(NC(=O)N(C)C)cc1OC`, the T/C under setting [1] is 101 % of control; the T/C (dose: 200.0 mg/kg/injection, schedule: Q04DX003 (ip), vehicle: saline) was 107 % of control; the T/C (dose: 400.0 mg/kg/injection, schedule: Q04DX003 (ip), vehicle: saline) was 105 % of control.

In the case of `NC(Cc1cnc[nH]1)C(=O)NC(Cc1ccc(O)cc1)C(=O)O` (stereo not drawn) (H-His-Tyr-OH; configuration not given here), the T/C reads like this: (dose: 60.0 mg/kg/injection, schedule: Q01DX005 (ip), vehicle: saline) 100 % of control; (dose: 120.0 mg/kg/injection, schedule: Q01DX005 (ip), vehicle: saline) 101 % of control; (dose: 240.0 mg/kg/injection, schedule: Q01DX005 (ip), vehicle: saline) 100 % of control.

On to `NCC(SSC(CN)C(=O)O)C(=O)O` (stereo not given), for which the T/C under setting [9] is 100 % of control; the T/C under setting [10] is 101 % of control; the T/C under setting [5] is 103 % of control and 115 % of control.

With `CC(=O)Oc1cccnc1`, the T/C by setting is: (dose: 50.0 mg/kg/injection, schedule: Q01DX006 (ip), vehicle: saline) 106 % of control; under setting [5], 100 % of control; (dose: 100.0 mg/kg/injection, schedule: Q01DX006 (ip), vehicle: saline) 100 % of control; under setting [6], 96 % of control; (dose: 200.0 mg/kg/injection, schedule: Q01DX006 (ip), vehicle: saline) 100 % of control; under setting [7], 95 % of control. Besides, the T/C is 100 % of control (dose: 400.0 mg/kg/injection, schedule: Q01DX006 (ip), vehicle: saline); 95 % of control under setting [8]; 100 % of control (dose: 600.0 mg/kg/injection, schedule: Q01DX006 (ip), vehicle: saline); 94 % of control (dose: 600.0 mg/kg/injection, schedule: Q01DX009 (ip), vehicle: saline); 99 % of control (dose: 800.0 mg/kg/injection, schedule: Q01DX006 (ip), vehicle: saline); 95 % of control (dose: 800.0 mg/kg/injection, schedule: Q01DX009 (ip), vehicle: saline).

Turning to `N[C@@H](CSSc1ccccc1C(=O)O)C(=O)O`, the T/C was 103 % of control (dose: 100.0 mg/kg/injection, schedule: Q04DX002 (ip), vehicle: Klucel (hydroxypropylcellulose) (HPC)); 107 % of control (dose: 200.0 mg/kg/injection, schedule: Q04DX002 (ip), vehicle: Klucel (hydroxypropylcellulose) (HPC)); 105 % of control (dose: 400.0 mg/kg/injection, schedule: Q04DX002 (ip), vehicle: Klucel (hydroxypropylcellulose) (HPC)).

For `O=c1ccc2cc(-c3ccncc3)cnc2[nH]1`, the T/C by setting is: (dose: 25.0 mg/kg/injection, schedule: Q04DX002 (ip), vehicle: saline with Tween-80) 100 % of control; (dose: 50.0 mg/kg/injection, schedule: Q04DX002 (ip), vehicle: saline with Tween-80) 94 % of control.

On to `O=C(O)C1=CC(c2ccccc2O)=NCCN1`, for which the T/C runs as follows: (dose: 15.0 mg/kg/injection, schedule: Q01DX005 (ip), vehicle: saline with Tween-80) 97 % of control and 98 % of control; (dose: 30.0 mg/kg/injection, schedule: Q01DX005 (ip), vehicle: saline with Tween-80) 102 % of control and 105 % of control; under setting [11], 114 % of control and 97 % of control; under setting [12], 103 % of control and 107 % of control.

Turning to `CCNc1nc(NC(C)C)nc(SC)n1`, the T/C reads like this: (dose: 50.0 mg/kg/injection, schedule: Q04DX003 (ip), vehicle: saline with Tween-80) 91 % of control; (dose: 100.0 mg/kg/injection, schedule: Q04DX003 (ip), vehicle: saline with Tween-80) 100 % of control; (dose: 200.0 mg/kg/injection, schedule: Q04DX003 (ip), vehicle: saline with Tween-80) 87 % of control.

Regarding `CC1CCC2(C(=O)O)CCC3(C)C(=CCC4C5(C)CCC(O)C(C)(C)C5CCC43C)C2C1C` (stereo not given), the T/C (dose: 22.0 mg/kg/injection, schedule: Q01DX010 (ip), vehicle: acetone) is 108 % of control and the T/C (dose: 35.0 mg/kg/injection, schedule: Q01DX010 (ip), vehicle: acetone) was 95 % of control.

Consider `CC1=C(N2CCOCC2)C(N2CCOCC2)C(C)C1=O` (stereo not given), for which the T/C under setting [2] is 100 % of control, the T/C under setting [3] was 101 % of control and the T/C under setting [4] is 100 % of control.

As to `COc1ccc(/C=C/C(=O)C(C)(C)Br)cc1`, the T/C by setting is: under setting [11], 101 % of control; under setting [12], 101 % of control; under setting [13], 103 % of control.

For the molecule `Cc1cccc2c(=O)[nH]c(=O)[nH]c12`, the T/C under setting [2] is 93 % of control, the T/C under setting [3] is 89 % of control and the T/C under setting [4] is 89 % of control.

For `CC1(O)C=CP(C)(=O)C1` (stereo not given), the T/C was 108 % of control under setting [9]; 110 % of control under setting [10]; 111 % of control under setting [5]; 100 % of control under setting [6]; 86 % of control under setting [7].

As to `CCOC(=O)NN(C(=O)OCC)C(C(C)=O)c1ccccc1` (stereo not given), the T/C by setting is: (dose: 60.0 mg/kg/injection, schedule: Q01DX005 (ip), vehicle: Klucel (hydroxypropylcellulose) (HPC)) 105 % of control; (dose: 120.0 mg/kg/injection, schedule: Q01DX005 (ip), vehicle: Klucel (hydroxypropylcellulose) (HPC)) 103 % of control; (dose: 240.0 mg/kg/injection, schedule: Q01DX005 (ip), vehicle: Klucel (hydroxypropylcellulose) (HPC)) 103 % of control.

With `CSC1=NC=C(C#N)C2=NC(c3ccc(Cl)cc3)NN12` (stereo not given), the T/C was 90 % of control under setting [11], 93 % of control under setting [12] and 94 % of control under setting [13].

These data come from PubChem BioAssay AID330 (DTP/NCI, 2004).
